Data taken from PMC6201879, “N-substituted phenylbenzamides of the niclosamide chemotype attenuate obesity related changes in high fat diet fed mice” (PLoS ONE, 2018).
Where “and” joins values, the source holds several entries; their conditions need not be identical. Equal entries are not always repeated. Where two headings read alike, the source gives them in different places.

Key:
PH5CH8 liver cells = assay: High-throughput hepatic de novo lipogenesis (DNL) assay, high content imaging of steatotic phenotype; type: cell-based, human; settings: for IC50: Homo sapiens
[1] = test system: HEK293 cells stably transduced with the human OCT3 transporter; assay: Cellular oxygen consumption rate (OCR), MitoXpress Xtra; type: cell-based; settings: HEK293 cells expressing human OCT3
Summary of the method: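 HEK293 cells stably expressing human OCT3, treated with four compound concentrations; oxygen consumption followed by MitoXpress Xtra TR-F lifetime (340/650 nm) every 2 min for 2 h. Lifetime slope from the linear portion taken as OCR; FCCP (1 μM) as stimulated control, differences versus DMSO by t-test.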

[2] = Metabolic stability in human liver microsomes; type: in vitro ADME; settings: for Remaining Percentage of 60 min (%), Human, Tested Sample: 0.5mg/ml microsomes and 1mM NADPH; for Remaining Percentage of 60 min (%), Human, Negative Control: 0.5mg/ml microsomes without NADPH; for Remaining Percentage of 60 min (%), Human, Heat-inactivated Control: heat inactivated microsomes without NADPH
Method: Three experiments were performed with 1) 0.5mg/ml microsomes and 1mM NADPH, 2) 0.5mg/ml microsomes without NADPH and 3) 0.5mg/ml heat inactivated microsomes without NADPH in 100mM phosphate buffer, containing 5mM magnesium chloride. […] At the indicated time points, 50μl samples were removed and stopped by addition of 4 volumes of cold acetonitrile with internal standards, 100nM alprazolam, 200nM labetalol and 2μM ketoprofen. The samples were centrifuged at 3,220 g for 40 minutes and aliquots of 100μl were subsequently diluted with 100μl of ultra-pure water and analyzed by LC/MS/MS using a (Shimadzu corporation) LC system coupled to a Shimadzu Triple Quad 5500 mass spectrometer with an ESI interface. The LC system used a Waters XSelect HSS T3 C18, 2.5μm, 2.1 x 50 mm column eluted with one of two methods using mobile phases A (water, 0.1% formic acid) and B (acetonitrile, 0.1% formic acid). […] The Shimadzu Triple Quad 5500 MS was operated with the following parameters: Ion source: Turbo spray; Ionization mode: ESI; Scan type: MRM; Collision gas: 10 L/min; Curtain gas: 30 L/min; Nebulize gas: 50 L/min; Auxiliary gas: 50 L/min; Temperature: 500°C; Ionspray voltage: +5500 V (positive MRM). All experiments were performed in duplicate. Data were analyzed using Microsoft excel, and peak areas were determined from extracted ion chromatograms.

[3] = Pharmacokinetic profile in Sprague Dawley rats (IV and PO); type: in vivo; settings: Mean + SD (n = 3); for F (oral bioavailability) / bioavailability: PO 5 mg/kg vs IV 1 mg/kg; for half-life / Cmax / bioavailability: Sprague Dawley; for half-life / Cmax / bioavailability / C0 / AUC(0-inf) / AUC(0-t) / clearance / MRT inf / Tmax: rat, plasma; for bioavailability: read-out: F (oral bioavailability); for clearance: read-out: Cl_obs
Method: To evaluate the pharmacokinetic profile by oral (PO) and intravenous (IV) administration routes we used 6 to 8-week old Sprague Dawley rats weighing approximately 200-330g (n = 3 per study group). Compounds were administered at 1mg/kg in 5% Cremophor EL and 20% PEG400 in water for IV and 5mg/kg in PBS for PO. All dose formulation was performed at room temperature. Animals were fasted overnight prior to dosing and were re-fed approximately 4 hours after dosing. For PO, 0.2ml of blood was collected pre- and 0.5, 1, 2, 4 8 12 and 24-hours after drug delivery and transferred to EDTA-K2 BD Vacutainer plastic blood collection tubes. IV samples were collected pre-injection and 0.08, 0.25, 0.5, 1, 2, 4, 8, 12, 24-hours post injection. Blood samples were centrifuged at 2,000 g for 5 minutes at 4°C to obtain plasma. Plasma samples were stored at -75±15°C prior to analysis and then thawed and analyzed by LC-MS/MS method and pharmacokinetic calculations were performed using WinNolin (Phoenix, version 6.4). For IV administration: T1/2, C0, AUClast, AUCinf, MRT, Cl, Vss, and number of points for regression were determined. For PO administration: T1/2, Cmax, Tmax, AUCinf, AUClast, F(0-∞) %, and number of points for regression were determined. Data are reported as mean and standard deviation.

[4] = test system: Salmonella typhimurium TA100; settings: for Mean Revertant Colony Counts TA-100 SP9+: with S9; for Mean Revertant Colony Counts TA-100 S9-: without S9; for fold increase in the mean number of revertant colonies, TA100: any concentration tested, vs negative control
[5] = PH5CH8 liver cells, 10-point dose response between 1μM and 1.9nM, read-out: IC50 (uM), inhibition of steatotic phenotype in DNL assay
[6] = iv, 1 mg/kg, IV 1 mg/kg, read-out: T 1/2 (IV) (converted)
[7] = po, 5 mg/kg, PO 5 mg/kg in PBS, read-out: T 1/2 (PO) (converted)
[8] = IV 1 mg/kg, read-out: AUC Inf (IV)
[9] = IV 1 mg/kg, read-out: AUC last (IV)
[10] = IV 1 mg/kg, read-out: MRT Inf_obs (IV)
[11] = PO 5 mg/kg in PBS, read-out: AUC Inf (PO)
[12] = PO 5 mg/kg in PBS, read-out: AUC last (PO)
[13] = PO 5 mg/kg in PBS, read-out: MRT Inf_obs (PO)

CC(C)(C)c1cc(C(=O)Nc2ccc(C(=O)O)cc2Cl)c(O)c(C(C)(C)C)c1 [Compound 600453, 3-Chloro-4-[(3,5-di-tert-butyl-2-hydroxybenzene)amido]benzoic acid]
IC50 (PH5CH8 liver cells; [5]): 0.14 µM | IC50 (PH5CH8 liver cells; S1 Table, SAR for N-Substituted Phenylbenzamides, read-out: IC50): 0.091 µM | Active/Inactive (PH5CH8 liver cells; S1 Table, SAR for N-Substituted Phenylbenzamides): Active | concentration dependence of OCR change ([1]; four concentrations): significantly decreased OCR at all concentrations above 300nM | Remaining Percentage of 60 min (%), Human, Tested Sample [2]: 58.8% | Remaining Percentage of 60 min (%), Human, Negative Control [2]: 92.2% | Remaining Percentage of 60 min (%), Human, Heat-inactivated Control [2]: 93.7% | AUC _%Extrap_obs (IV) ([3]; IV 1 mg/kg): 0.50 +/-0.114% | AUCl ast/D (IV) ([3]; IV 1 mg/kg): 5400 ± 683 ng·kg·h/mL/mg | V ss_obs ([3]; IV 1 mg/kg): 0.60 ± 0.076 L/kg | AUC _%Extrap_obs (PO) ([3]; PO 5 mg/kg in PBS): 2.22 +/- 1.36% | AUC last / D (PO) ([3]; PO 5 mg/kg in PBS): 3390 ± 551 ng·kg·h/mL/mg | T 1/2 (PO) ([3]; PO 5 mg/kg in PBS, 5 mg/kg): 3.91 ± 0.75 h | F (oral bioavailability) [3]: 63.91 +/- 10.5% | half-life [3, 6]: 3.68 ± 0.13 h | Cmax ([3]; po, 5 mg/kg, PO 5 mg/kg in PBS): 2050 ± 558 ng/mL | half-life [3, 7]: 3.9 h | bioavailability ([3]; po, 5 mg/kg): 64% | C0 ([3]; IV 1 mg/kg): 2816 ± 7.02 ng/mL | AUC(0-inf) [3, 8]: 5420 ± 689 ng·h/mL | AUC(0-t) [3, 9]: 5400 ± 683 ng·h/mL | clearance ([3]; IV 1 mg/kg): 3.11 ± 0.42 mL/min/kg | MRT inf [3, 10]: 3.22 ± 0.32 h | Tmax ([3]; PO 5 mg/kg in PBS): 4 h | AUC(0-inf) [3, 11]: 17300 ± 2850 ng·h/mL | AUC(0-t) [3, 12]: 16900 ± 2750 ng·h/mL | MRT inf [3, 13]: 7.4 ± 0.44 h | Mean Revertant Colony Counts TA-100 SP9+ ([4]; 1.5 ug/Well): 17.3 | Mean Revertant Colony Counts TA-100 S9- ([4]; 1.5 ug/Well): 35.0 | Mean Revertant Colony Counts TA-100 SP9+ ([4]; 4 ug/Well): 21.3 | Mean Revertant Colony Counts TA-100 S9- ([4]; 4 ug/Well): 30.0 | Mean Revertant Colony Counts TA-100 SP9+ ([4]; 10 ug/Well): 27.0 | Mean Revertant Colony Counts TA-100 S9- ([4]; 10 ug/Well): 33.3 | Mean Revertant Colony Counts TA-100 SP9+ ([4]; 25 ug/Well): 34.0 | Mean Revertant Colony Counts TA-100 S9- ([4]; 25 ug/Well): 24.0 | Mean Revertant Colony Counts TA-100 SP9+ ([4]; 64 ug/Well): 31.7 | Mean Revertant Colony Counts TA-100 S9- ([4]; 64 ug/Well): 26.3 | Mean Revertant Colony Counts TA-100 SP9+ ([4]; 160 ug/Well): 24.3 | Mean Revertant Colony Counts TA-100 S9- ([4]; 160 ug/Well): 21.3 | Mean Revertant Colony Counts TA-100 SP9+ ([4]; 400 ug/Well): 29.3 | Mean Revertant Colony Counts TA-100 S9- ([4]; 400 ug/Well): 8.0 | Mean Revertant Colony Counts TA-100 SP9+ ([4]; 1000 ug/Well): 15.7 | Mean Revertant Colony Counts TA-100 S9- ([4]; 1000 ug/Well): 2.7 | fold increase in the mean number of revertant colonies, TA100 [4]: < 2 fold

CC(C)(C)c1ccc(O)c(C(=O)Nc2cc(C(=O)O)ccc2Cl)c1 [Compound 600494, 3-{[2-Hydroxy-5-(tert-butyl)benzene]amido}-4chloro-benzoic acid]
IC50 (PH5CH8 liver cells; [5]): 0.004 µM | IC50 (PH5CH8 liver cells; S1 Table. SAR for N-Substituted Phenylbenzamides, read-out: IC50): 0.0039 µM | Active/Inactive (PH5CH8 liver cells; S1 Table. SAR for N-Substituted Phenylbenzamides): Active | change in respiration / oxygen consumption rate (OCR) ([1]; compared to DMSO control, 2 hours): no change in respiration | Remaining Percentage of 60 min (%), Human, Tested Sample [2]: 99.4% | Remaining Percentage of 60 min (%), Human, Negative Control [2]: 92.8% | Remaining Percentage of 60 min (%), Human, Heat-inactivated Control [2]: 114.2% | AUC _%Extrap_obs (IV) ([3]; IV 1 mg/kg): 1.23 +/- 1.05% | AUCl ast/D (IV) ([3]; IV 1 mg/kg): 18200 ± 1190 ng·kg·h/mL/mg | V ss_obs ([3]; IV 1 mg/kg): 0.13 ± 0.035 L/kg | AUC _%Extrap_obs (PO) ([3]; PO 5 mg/kg in PBS): 3.64 +/-4.73% | AUC last / D (PO) ([3]; PO 5 mg/kg in PBS): 2490 ± 542 ng·kg·h/mL/mg | T 1/2 (PO) ([3]; PO 5 mg/kg in PBS, 5 mg/kg): 4.6 h and 4.58 ± 2.61 h | F (oral bioavailability) [3]: 14.17 +/- 3.8% | half-life [3, 6]: 5.36 ± 2 h | Cmax ([3]; po, 5 mg/kg, PO 5 mg/kg in PBS): 1850 ± 674 ng/mL | half-life [3, 7]: 5.3 h | bioavailability ([3]; po, 5 mg/kg): 14% | C0 ([3]; IV 1 mg/kg): 22900 ± 4300 ng/mL | AUC(0-inf) [3, 8]: 18400 ± 1400 ng·h/mL | AUC(0-t) [3, 9]: 18200 ± 1190 ng·h/mL | clearance ([3]; IV 1 mg/kg): 0.91 ± 0.068 mL/min/kg | MRT inf [3, 10]: 2.39 ± 0.69 h | Tmax ([3]; PO 5 mg/kg in PBS): 5.33 ± 2.31 h | AUC(0-inf) [3, 11]: 13000 ± 3520 ng·h/mL | AUC(0-t) [3, 12]: 12400 ± 2710 ng·h/mL | MRT inf [3, 13]: 7.89 ± 1.49 h | Mean Revertant Colony Counts TA-100 SP9+ ([4]; 1.5 ug/Well): 20.7 | Mean Revertant Colony Counts TA-100 S9- ([4]; 1.5 ug/Well): 30.0 | Mean Revertant Colony Counts TA-100 SP9+ ([4]; 4 ug/Well): 17.3 | Mean Revertant Colony Counts TA-100 S9- ([4]; 4 ug/Well): 27.0 | Mean Revertant Colony Counts TA-100 SP9+ ([4]; 10 ug/Well): 18.0 | Mean Revertant Colony Counts TA-100 S9- ([4]; 10 ug/Well): 25.0 | Mean Revertant Colony Counts TA-100 SP9+ ([4]; 25 ug/Well): 22.0 | Mean Revertant Colony Counts TA-100 S9- ([4]; 25 ug/Well): 24.0 | Mean Revertant Colony Counts TA-100 SP9+ ([4]; 64 ug/Well): 16.3 | Mean Revertant Colony Counts TA-100 S9- ([4]; 64 ug/Well): 33.0 | Mean Revertant Colony Counts TA-100 SP9+ ([4]; 160 ug/Well): 21.0 | Mean Revertant Colony Counts TA-100 S9- ([4]; 160 ug/Well): 25.7 | Mean Revertant Colony Counts TA-100 SP9+ ([4]; 400 ug/Well): 21.3 | Mean Revertant Colony Counts TA-100 S9- ([4]; 400 ug/Well): 22.3 | Mean Revertant Colony Counts TA-100 SP9+ ([4]; 1000 ug/Well): 20.3 | Mean Revertant Colony Counts TA-100 S9- ([4]; 1000 ug/Well): 17.7 | fold increase in the mean number of revertant colonies, TA100 [4]: < 2 fold
